From US9062057B2, “CCR5 antagonists for treating HIV” (Purdue Research Foundation, priority 2010, dated 2015)

Molecular target: CCR5 chemokine receptor (Homo sapiens, UniProt P51681)
Experiment: Inhibition Data (IC50; no method described)
Settings: assay not described, read-out: Activity (*) (IC50 class)

Chain of CCR5 chemokine receptor (P51681 whole entry): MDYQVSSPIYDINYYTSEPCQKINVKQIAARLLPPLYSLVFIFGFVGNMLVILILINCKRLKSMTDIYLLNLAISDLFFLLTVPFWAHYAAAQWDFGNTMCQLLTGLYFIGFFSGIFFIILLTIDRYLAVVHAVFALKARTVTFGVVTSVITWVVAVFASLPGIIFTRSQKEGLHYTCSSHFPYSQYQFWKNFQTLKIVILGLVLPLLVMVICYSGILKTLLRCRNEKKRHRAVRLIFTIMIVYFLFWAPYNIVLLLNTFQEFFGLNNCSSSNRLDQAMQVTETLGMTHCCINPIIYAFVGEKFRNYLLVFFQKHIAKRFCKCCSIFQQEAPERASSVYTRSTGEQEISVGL

Row | Compound | IC50 [nM]
1 | CN(CC(C)(CCN1CCC2C(CCN2C(=O)OC(C)(C)C)C1)c1ccccc1)S(=O)(=O)c1ccc(CNC(=O)OC(C)(C)C)cc1 (centres unmarked) [Example 39] | < 1000
2 | CN(C[C@@](C)(CCN1CC[C@H]2[C@H](CCN2C(=O)OC(C)(C)C)C1)c1ccccc1)S(=O)(=O)c1ccc(CNC(=O)O[C@H]2CCOC2)cc1 [Example 3] | < 1000
3 | C[C@H](NC(=O)N1CC2CN(CC[C@](C)(CN(C)S(=O)(=O)c3ccccc3)c3ccccc3)CC[C@H]2C1)c1cccc2ccccc12 (some centres unmarked) [Example 17] | < 1000
4 | CN(C[C@@](C)(CCN1C2CCC1CC(NC(=O)OC(C)(C)C)C2)c1ccccc1)S(=O)(=O)c1ccccc1 (some centres unmarked) [Example 70] | < 1000
5 | CN(C[C@@](C)(CCN1CC[C@H]2CN(C(N)=O)C[C@H]2C1)c1ccccc1)S(=O)(=O)c1ccccc1 [Example 76] | < 1000
6 | C[C@H](NC(=O)N1C[C@H]2CN(CC[C@](C)(CN(C)S(=O)(=O)c3ccccc3)c3ccccc3)CC[C@H]2C1)c1ccccc1 [Example 14] | < 1000
7 | CN(C[C@@](C)(CCN1CCC2(CC1)CCN(C(=O)OC(C)(C)C)C2)c1ccccc1)S(=O)(=O)c1ccccc1 [Example 58] | < 1000
8 | C[C@H](NC(=O)N1CC2CN(CC[C@](C)(CN(C)S(=O)(=O)c3ccccc3)c3ccccc3)CC[C@H]2C1)c1cccc2ccccc12 (some centres unmarked) [Example 79] | < 1000
9 | Cc1ccc(S(=O)(=O)N[C@@H](CCN2C3CCC2CC(n2c(C)nnc2C2CO[C@H]4OCCC24)C3)c2ccccc2)cc1 (some centres unmarked) [Example 83] | < 1000
10 | CN(C[C@@](C)(CCN1CC[C@H]2OC(C)(C)O[C@H]2C1)c1ccccc1)S(=O)(=O)c1ccccc1 [Example 71] | < 1000
11 | CN(C[C@@](C)(CCN1CC2CN(C(=O)OC(C)(C)C)[C@H]2C1)c1ccccc1)S(=O)(=O)c1ccccc1 (some centres unmarked) [Example 64] | < 1000
12 | CC1CN(CC[C@](C)(CN(C)S(=O)(=O)c2ccccc2)c2ccccc2)CCC12C=Cc1ccccc12 (some centres unmarked) [Example 48] | < 1000
13 | CN(C[C@@](C)(CCNC1CC2CCC(C1)N2C(=O)OC(C)(C)C)c1ccccc1)S(=O)(=O)c1ccccc1 (some centres unmarked) [Example 67] | < 1000
14 | CN(CC(C)(CCN1CCC2C(CCN2C(=O)OC(C)(C)C)C1)c1ccccc1)S(=O)(=O)c1ccc(CN)cc1 (centres unmarked) [Example 41] | < 1000
15 | CN(C[C@@](C)(CCN1CCC2(CCCN2C(=O)OC(C)(C)C)CC1)c1ccccc1)S(=O)(=O)c1ccccc1 [Example 65] | < 1000
16 | Cc1nc(COC(=O)N2C[C@H]3CN(CC[C@](C)(CN(C)S(=O)(=O)c4ccccc4)c4ccccc4)CC[C@H]3C2)c(C)o1 [Example 19] | < 1000
17 | CN(C[C@@](C)(CCN1CC2CCN(C(=O)OC(C)(C)C)C2C1)c1ccccc1)S(=O)(=O)c1ccccc1 (some centres unmarked) [Example 22] | < 1000
18 | CN(CC(C)(CCN1CCC2C(CCN2C(=O)OC2CCOC2)C1)c1ccccc1)S(=O)(=O)c1ccccc1 (centres unmarked) [Example 29] | < 1000
19 | CN(C[C@@](C)(CCN1CCc2[nH][nH]c(=O)c2C1)c1ccccc1)S(=O)(=O)c1ccccc1 [Example 78] | < 1000
20 | CC(C)(C)OC(=O)N1CCC2CN(C(=O)[C@H](Cc3ccccc3)NC(=O)OCc3ccccc3)CCC21 (some centres unmarked) [Example 26] | < 1000
21 | COC(=O)[C@@H](CCSC)NC(=O)C1CCN(CC[C@](C)(CN(C)S(=O)(=O)c2ccccc2)c2ccccc2)CC1 [Example 56] | < 1000
22 | CN(C[C@@](C)(CCN1CC[C@H]2CN(C(=O)OCc3ccccc3)C[C@H]2C1)c1ccccc1)S(=O)(=O)c1ccccc1 [Example 75] | < 1000
23 | CN1N=C2CCN(CC[C@](C)(CN(C)S(=O)(=O)c3ccccc3)c3ccccc3)CC2(C)C1=O (some centres unmarked) [Example 51] | < 1000
24 | CO[C@@](CCN1CCC2C(CCN2C(=O)OC(C)(C)C)C1)(CN(C)S(=O)(=O)c1ccccc1)c1ccccc1 (some centres unmarked) [Example 30] | < 1000
25 | CN(CC(C)(CCN1CCC2C(CCN2C(=O)OC(C)(C)C)C1)c1ccccc1)S(=O)(=O)c1ccc(C(=O)OCc2ccccc2)cc1 (centres unmarked) [Example 33] | < 1000
26 | CN1N=C2CCN(CC[C@](C)(CN(C)S(=O)(=O)c3ccccc3)c3ccccc3)CC2(Cc2ccccc2)C1=O (some centres unmarked) [Example 52] | < 1000

Results, then the compound that gave them:

Row | IC50 [nM] | Compound
27 | < 100 | CN(CC(C)(CCN1CCC2C(CCN2C(=O)OC(C)(C)C)C1)c1ccccc1)S(=O)(=O)c1ccc(C(=O)O)cc1 (centres unmarked) [Example 34]
28 | < 1000 | COc1cccc(C(C)(CCN2CCC3C(CCN3C(=O)OC(C)(C)C)C2)CN(C)S(=O)(=O)c2ccccc2)c1 (centres unmarked) [Example 50]
29 | < 100 | COc1ccc(C(C)(CCN2CCC3C(CCN3C(=O)OC(C)(C)C)C2)CN(C)S(=O)(=O)c2ccccc2)cc1 (centres unmarked) [Example 49]
30 | < 1000 | CN(CC(C)(CCN1CCC2C(CCN2C(=O)OC(C)(C)C)C1)c1ccccc1)S(=O)(=O)c1ccc(CNC(=O)OCc2ccccc2)cc1 (centres unmarked) [Example 37]
31 | < 1000 | Cc1nnc(C2CO[C@H]3OCCC23)n1C1CC2CCC(C1)N2CC[C@H](N)c1ccccc1 (some centres unmarked) [Example 82]
32 | < 100 | CN(C[C@@](C)(CCN1CC[C@H]2CN(C(=O)OC(C)(C)C)C[C@H]2C1)c1ccccc1)S(=O)(=O)c1ccccc1 [Example 9]
33 | < 1000 | CC(C)(C)OC(=O)N1CC[C@H]2CN(C(=O)O[C@H]3CCOC3)C[C@H]2C1 [Example 74]
34 | < 100 | COC(OC)c1ccc(S(=O)(=O)N(C)CC(C)(CCN2CCC3C(CCN3C(=O)OC(C)(C)C)C2)c2ccccc2)cc1 (centres unmarked) [Example 36]
35 | < 1000 | CN(C[C@@](C)(CCN1CC[C@H]2CNC(=O)[C@H]2C1)c1ccccc1)S(=O)(=O)c1ccccc1 [Example 69]
36 | < 100 | CN(C[C@@](C)(CCN1CCC2C(CCN2C(=O)OC(C)(C)C)C1)c1ccccc1)S(=O)(=O)c1ccccc1 (some centres unmarked) [Example 43]
37 | < 100 | C[C@@H](NC(=O)N1CC2CCN(CC[C@](C)(CN(C)S(=O)(=O)c3ccccc3)c3ccccc3)C[C@@H]2C1)c1ccccc1 (some centres unmarked) [Example 12]
38 | < 1000 | CN(C[C@@](C)(CCN1CC[C@@H]2[C@@H](CCN2C(=O)OC(C)(C)C)C1)c1ccccc1)S(=O)(=O)c1ccccc1 [Example 46]
39 | < 1000 | CC(C)(C)OC(=O)N1CCC2CN(C(=O)[C@@H](N)Cc3ccccc3)CCC21 (some centres unmarked) [Example 27]
40 | < 1 | CN(C[C@@](C)(CCN1CC[C@@H]2[C@@H](CCN2C(=O)OC(C)(C)C)C1)c1ccccc1)S(=O)(=O)c1ccc(CNC(=O)O[C@H]2CCOC2)cc1 [Example 4]
41 | < 1000 | CN(C[C@@](C)(CCN1CC[C@H]2[C@H](CCN2C(=O)OC(C)(C)C)C1)c1ccccc1)S(=O)(=O)c1ccccc1 [Example 2]
42 | < 1000 | CO[C@](CCN1CCC2C(CCN2C(=O)OC(C)(C)C)C1)(CN(C)S(=O)(=O)c1ccccc1)c1ccccc1 (some centres unmarked) [Example 31]
43 | < 1000 | CN(C[C@@](C)(CCN1CC[C@H]2CNC[C@H]2C1)c1ccccc1)S(=O)(=O)c1ccccc1 [Example 8]
44 | < 10 | CN(CC(C)(CCN1CCC2C(CCN2C(=O)OC(C)(C)C)C1)c1ccccc1)S(=O)(=O)c1ccccc1 (centres unmarked) [Example 25]
45 | < 1000 | CC(C)[C@H](NC(=O)OCc1ccccc1)C(=O)N1CC2CN(C(=O)OC(C)(C)C)CC[C@H]2C1 (some centres unmarked) [Example 72]
46 | < 100 | CN(C[C@@](C)(CCN1C2CCC1CC(NC(=O)OCc1ccccc1)C2)c1ccccc1)S(=O)(=O)c1ccccc1 (some centres unmarked) [Example 6]

Row | IC50 [nM] | Compound
47 | < 100 | CC(=O)OC(OC(C)=O)c1ccc(S(=O)(=O)N(C)CC(C)(CCN2CCC3C(CCN3C(=O)OC(C)(C)C)C2)c2ccccc2)cc1 (centres unmarked) [Example 35]
48 | < 100 | CC(C)COC(=O)NC1CC2CCC(C1)N2CC[C@](C)(CN(C)S(=O)(=O)c1ccccc1)c1ccccc1 (some centres unmarked) [Example 20]
49 | < 1000 | Cc1nnc(C2CO[C@H]3OCCC23)n1C1CC2CCC(C1)N2CC[C@H](NS(=O)(=O)c1ccc2c(c1)OCO2)c1ccccc1 (some centres unmarked) [Example 81]
50 | < 100 | C[C@@H](NC(=O)N1CC2CCN(CC[C@](C)(CN(C)S(=O)(=O)c3ccccc3)c3ccccc3)C[C@@H]2C1)c1ccccc1 (some centres unmarked) [Example 13]
51 | < 1000 | Cc1ccc(S(=O)(=O)N2C[C@H]3CN(CC[C@](C)(CN(C)S(=O)(=O)c4ccccc4)c4ccccc4)CC[C@H]3C2)cc1 [Example 18]
52 | < 100 | CN(C[C@@](C)(CCN1CC[C@H]2CN(C(=O)OCc3ccccc3)C[C@H]2C1)c1ccccc1)S(=O)(=O)c1ccccc1 [Example 7]
53 | < 100 | CN(CC(C)(CCN1CCC2C(CCN2C(=O)OC(C)(C)C)C1)c1ccccc1)S(=O)(=O)c1ccccc1 (centres unmarked) [Example 32]
54 | < 10 | Cc1nnc(C(C)C)n1C1CC2CCC(C1)N2CC[C@](C)(CN(C)S(=O)(=O)c1ccccc1)c1ccccc1 (some centres unmarked) [Example 16]
55 | < 100 | Cc1nnc(C2CO[C@H]3OCCC23)n1C1CC2CCC(C1)N2CC[C@H](NC(=O)OCc1ccccc1)c1ccccc1 (some centres unmarked) [Example 80]
56 | < 100 | CN(C[C@@](C)(CCN1C[C@H]2CCN(C(=O)OC(C)(C)C)C[C@H]2C1)c1ccccc1)S(=O)(=O)c1ccccc1 [Example 10]
57 | < 100 | CN(C[C@@](C)(CCN1C2CCC1CC(NC(=O)O[C@H]1CCOC1)C2)c1ccccc1)S(=O)(=O)c1ccccc1 (some centres unmarked) [Example 21]
58 | < 10 | CN(C[C@@](C)(CCN1CC[C@@H]2[C@@H](CCN2C(=O)OC(C)(C)C)C1)c1ccccc1)S(=O)(=O)c1ccccc1 [Example 44]
59 | < 100 | CC(=O)NCc1ccc(S(=O)(=O)N(C)CC(C)(CCN2CCC3C(CCN3C(=O)OC(C)(C)C)C2)c2ccccc2)cc1 (centres unmarked) [Example 38]
60 | < 1 | CN(C[C@@](C)(CCN1CC[C@@H]2[C@@H](CCN2C(=O)OC(C)(C)C)C1)c1ccccc1)S(=O)(=O)c1ccccc1 [Example 1]
61 | < 100 | C[C@H](c1ccccc1)N(C)C(=O)N1C[C@H]2CN(CC[C@](C)(CN(C)S(=O)(=O)c3ccccc3)c3ccccc3)CC[C@H]2C1 [Example 15]
62 | < 100 | CN(C[C@@](C)(CCN1CC[C@H]2CN(C(=O)OCc3ccccc3)C[C@H]2C1)c1ccccc1)S(=O)(=O)c1ccccc1 [Example 11]
63 | < 100 | CN(CC(C)(CCN1CCC2C(CCN2C(=O)OC2CO[C@H]3OCCC23)C1)c1ccccc1)S(=O)(=O)c1ccccc1 (some centres unmarked) [Example 28]
64 | < 100 | CN(CC(C)(CCN1CCC2C(CCN2C(=O)OC(C)(C)C)C1)c1ccccc1)S(=O)(=O)c1ccc(CNC(=O)O[C@H]2CCOC2)cc1 (some centres unmarked) [Example 40]
65 | < 100 | CN(C[C@@](C)(CCN1C2CCC1CC(NC(=O)OCc1ccccc1)C2)c1ccccc1)S(=O)(=O)c1ccccc1 (some centres unmarked) [Example 5]
